{"source": "patent US8790695B2", "about": "“Medicinal carriers, and preparation method and uses thereof” (China Medical University, priority 2012, dated 2014)", "key": {"Helicobacter pylori [1]": {"tested_on": "Helicobacter pylori", "settings": "infected mice, fed 30 mg/kg amoxicillin once daily for 10 days", "description": "Small black mice were fed with a broth containing 1.0×10^9 CFU/ml Helicobacter pylori continually for 6 times in 2 weeks, to establish a Helicobacter pylori-infected animal model. The mice were fasted one night before fed with Helicobacter pylori, to decrease the mucus in the stomach, and thereby, increase the probability of infection. Then, the Helicobacter pylori-infected mice (6 mice each group) were fed with (a) the nano medicinal carrier obtained from example 1 (2) (control group); (b) 30 mg/kg amoxicillin; and (c) nano medicinal carrier (the concentration of amoxicillin, 30 mg/kg) obtained from example 1 (4) once daily for 10 days. Then, the mice were sacrificed, and the tissue in the stomach was taken off to conduct the colony number experiment."}, "Helicobacter pylori [2]": {"tested_on": "Helicobacter pylori", "settings": "stomach tissue of infected mice, 37° C. for 12 hours", "description": "Small black mice were fed with a broth containing 1.0×10^9 CFU/ml Helicobacter pylori continually for 6 times in 2 weeks, to establish a Helicobacter pylori-infected animal model. The mice were fasted one night before fed with Helicobacter pylori, to decrease the mucus in the stomach, and thereby, increase the probability of infection. Then, the Helicobacter pylori-infected mice (6 mice each group) were fed with (a) the nano medicinal carrier obtained from example 1 (2) (control group); (b) 30 mg/kg amoxicillin; and (c) nano medicinal carrier (the concentration of amoxicillin, 30 mg/kg) obtained from example 1 (4) once daily for 10 days.\nCampylobacter-like organism assay (CLO assay) was conducted to evaluate the effect of nano medicinal carrier on treating the Helicobacter pylori-infected mice. The internal side of the stomach tissue of the Helicobacter pylori-infected mice was touch with CLO gel and compressed, the tissue was incubated at 37° C. for 12 hours, and the variation of the color of the CLO gel was observed. The CLO gel without Helicobacter pylori (contacted with deionized water) is a yellow color. The CLO gel with a little of Helicobacter pylori is a yellow-orange color. The CLO gel with a lot of Helicobacter pylori is a red color. A darker color represents a higher amount of Helicobacter pylori."}}, "data": [{"molecule": "CC1(C)S[C@@H]2[C@H](NC(=O)[C@H](N)c3ccc(O)cc3)C(=O)N2[C@H]1C(=O)O", "note": "[amoxicillin solution, amoxicillin]", "values": [{"measurement": "The colony number of Helicobacter pylori in the stomach tissue of the mice", "setting": "Helicobacter pylori [1]", "result": "316.9 ± 30.5"}, {"measurement": "color of the CLO gel (darker color = higher amount of Helicobacter pylori)", "setting": "Helicobacter pylori [2]", "result": "red color"}]}]}
